Measured values from PubChem BioAssay AID2060903 (Molecular Pharmacology Branch, DTP, NCI, 2025).

System: 377384-186-R-J1-PDC complex spheroid viability
Test: Anticancer human tumor 377384-186-R-J1-PDC patient-derived pancreatic carcinoma cell line growth inhibition [RAS]
Settings: for IC50: curve of first compound; for viability, T/C: stronger effect = lower value
Procedure, shortened: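 Agents were tested in combination matrices in half-log decrements from a top concentration at or near clinical Cmax (10 microM if undetermined). Targets were multi-cell spheroids of tumour lines plus HUVEC and MSC stromal cells.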

[1] = second compound 0.0316 µM, first compound 0.0316 µM
[2] = second compound 0.0316 µM, first compound 0.1 µM
[3] = second compound 0.0316 µM, first compound 0.316 µM
[4] = second compound 0.0316 µM, first compound 1 µM
[5] = second compound 0.1 µM, first compound 0.0316 µM
[6] = second compound 0.1 µM, first compound 0.1 µM
[7] = second compound 0.1 µM, first compound 0.316 µM
[8] = second compound 0.1 µM, first compound 1 µM
[9] = second compound 0.316 µM, first compound 0.0316 µM
[10] = second compound 0.316 µM, first compound 0.1 µM
[11] = second compound 0.316 µM, first compound 0.316 µM
[12] = second compound 0.316 µM, first compound 1 µM
[13] = second compound 1 µM, first compound 0.0316 µM
[14] = second compound 1 µM, first compound 0.1 µM
[15] = second compound 1 µM, first compound 0.316 µM
[16] = second compound 1 µM, first compound 1 µM
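Also: spheroids exposed to compounds for seven days before readout.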

C=CC(=O)N1CCN(c2nc(OCC3CCCN3C)nc3c(F)c(-c4nc(N)cc(C)c4C(F)(F)F)c(Cl)cc23)C(C)C1 (centres undefined) + C#Cc1c(F)ccc2cc(O)cc(-c3ncc4c(N5CC6CCC(C5)N6)nc(OCC56CCCN5CC(F)C6)nc4c3F)c12
IC50 (second compound 0.0316 µM): < 0.00316 µM
IC50 (second compound 0.1 µM): < 0.00316 µM
IC50 (second compound 0.316 µM): < 0.00316 µM
IC50 (second compound 1 µM): < 0.00316 µM
IC50 (second compound 3.16 µM): < 0.00316 µM
IC50 (second compound 10 µM): < 0.00316 µM
viability, T/C (second compound 0.0316 µM, first compound 0.00316 µM): 24.6%
viability, T/C (second compound 0.0316 µM, first compound 0.01 µM): 16.6%
viability, T/C [1]: 20.2%
viability, T/C [2]: 20.3%
viability, T/C [3]: 10.2%
viability, T/C [4]: 9.03%
viability, T/C (second compound 0.1 µM, first compound 0.00316 µM): 14.6%
viability, T/C (second compound 0.1 µM, first compound 0.01 µM): 9.29%
viability, T/C [5]: 10.7%
viability, T/C [6]: 9.27%
viability, T/C [7]: 5.71%
viability, T/C [8]: 5.75%
viability, T/C (second compound 0.316 µM, first compound 0.00316 µM): 5.54%
viability, T/C (second compound 0.316 µM, first compound 0.01 µM): 5.26%
viability, T/C [9]: 4.78%
viability, T/C [10]: 5.36%
viability, T/C [11]: 4.48%
viability, T/C [12]: 2.79%
viability, T/C (second compound 1 µM, first compound 0.00316 µM): 3.22%
viability, T/C (second compound 1 µM, first compound 0.01 µM): 2.82%
viability, T/C [13]: 3.82%
viability, T/C [14]: 3.54%
viability, T/C [15]: 3.08%
viability, T/C [16]: 3.36%
viability, T/C (second compound 3.16 µM, first compound 0.00316 µM): 1.84%
viability, T/C (second compound 3.16 µM, first compound 0.01 µM): 2.35%
viability, T/C (second compound 3.16 µM, first compound 0.0316 µM): 2.16%
viability, T/C (second compound 3.16 µM, first compound 0.1 µM): 1.87%
viability, T/C (second compound 3.16 µM, first compound 0.316 µM): 2.05%
viability, T/C (second compound 3.16 µM, first compound 1 µM): 2.48%
viability, T/C (second compound 10 µM, first compound 0.00316 µM): 1.31%
viability, T/C (second compound 10 µM, first compound 0.01 µM): 1.46%
viability, T/C (second compound 10 µM, first compound 0.0316 µM): 0.83%
viability, T/C (second compound 10 µM, first compound 0.1 µM): 1.21%
viability, T/C (second compound 10 µM, first compound 0.316 µM): 1.13%
viability, T/C (second compound 10 µM, first compound 1 µM): 0.62%

Cc1nc(N2CCC3(CC2)COC(C)C3N)c(CO)nc1Sc1ccnc(N)c1Cl (centres undefined) + C=CC(=O)N1CCN(c2nc(OCC3CCCN3C)nc3c(F)c(-c4nc(N)cc(C)c4C(F)(F)F)c(Cl)cc23)C(C)C1
IC50 (second compound 0.00316 µM): > 10 µM
IC50 (second compound 0.01 µM): > 10 µM
IC50 (second compound 0.0316 µM): > 10 µM
IC50 (second compound 0.1 µM): > 10 µM
IC50 (second compound 0.316 µM): > 10 µM
IC50 (second compound 1 µM): > 10 µM
viability, T/C (second compound 0.00316 µM, first compound 0.0316 µM): 94.2%
viability, T/C (second compound 0.00316 µM, first compound 0.1 µM): 77%
viability, T/C (second compound 0.00316 µM, first compound 0.316 µM): 84%
viability, T/C (second compound 0.00316 µM, first compound 1 µM): 80.4%
viability, T/C (second compound 0.00316 µM, first compound 3.16 µM): 70%
viability, T/C (second compound 0.00316 µM, first compound 10 µM): 67%
viability, T/C (second compound 0.01 µM, first compound 0.0316 µM): 90.9%
viability, T/C (second compound 0.01 µM, first compound 0.1 µM): 85.9%
viability, T/C (second compound 0.01 µM, first compound 0.316 µM): 81%
viability, T/C (second compound 0.01 µM, first compound 1 µM): 74.7%
viability, T/C (second compound 0.01 µM, first compound 3.16 µM): 79.1%
viability, T/C (second compound 0.01 µM, first compound 10 µM): 77.8%
viability, T/C [1]: 91.1%
viability, T/C [2]: 80.7%
viability, T/C [3]: 72.4%
viability, T/C [4]: 80.4%
viability, T/C (second compound 0.0316 µM, first compound 3.16 µM): 79.2%
viability, T/C (second compound 0.0316 µM, first compound 10 µM): 78.4%
viability, T/C [5]: 84.4%
viability, T/C [6]: 82.7%
viability, T/C [7]: 70.7%
viability, T/C [8]: 76%
viability, T/C (second compound 0.1 µM, first compound 3.16 µM): 80.1%
viability, T/C (second compound 0.1 µM, first compound 10 µM): 74.6%
viability, T/C [9]: 91.8%
viability, T/C [10]: 87%
viability, T/C [11]: 76.5%
viability, T/C [12]: 79.3%
viability, T/C (second compound 0.316 µM, first compound 3.16 µM): 75.7%
viability, T/C (second compound 0.316 µM, first compound 10 µM): 69.8%
viability, T/C [13]: 84.1%
viability, T/C [14]: 91.2%
viability, T/C [15]: 81.7%
viability, T/C [16]: 73.6%
viability, T/C (second compound 1 µM, first compound 3.16 µM): 78.4%
viability, T/C (second compound 1 µM, first compound 10 µM): 79.8%
